This note sets out measurements from patent US7026357B2, “Diphenylurea compounds” (Les Laboratoires Servier, priority 2000, dated 2006).

Test system in one data set: not given
Experiment: not given
Conditions: not given
Broadly, the melting point is the temperature, or range, at which the solid turns liquid. In the case of `Cc1ccc(NC(=O)Nc2ccc3c(c2)CC(c2c[nH]cn2)CC3)cc1Cl.Cl` (centres unmarked), the melting point fell in the range of 206 to 208 °C.
As to `Cc1ccc(NC(=O)Nc2cccc(C(C)C3=NCCN3)c2)cc1Cl.Cl` (centres unmarked), the melting point lay within 100 to 102 °C.
For the compound `COc1ccc(NC(=O)Nc2ccc(C)c(C)c2)cc1N1CCN(CC2COc3ccccc3O2)CC1.Cl.Cl` (centres unmarked), the melting point is 234 to 236 °C.
As for `Cc1ccc(NC(=O)Nc2ccc(C)c(NC3=NCCN3)c2)cc1Cl.Cl`, the melting point was 252 to 254 °C.
Consider `Cl.Cl.O=C(Nc1cccc(N2CCN(CC3COc4ccccc4O3)CC2)c1)N1CCc2c1ccc1ccccc21` (centres unmarked), for which the melting point was in the range of 194 to 196 °C.
`Cc1ccc(NC(=O)Nc2cccc(N3CCN(CC4COc5ccccc5O4)CC3)c2)cc1Cl.Cl` (centres unmarked) [Example 6, N-(3-Chloro-4-methylphenyl)-N′-{3-[4-(2,3-dihydro-1,4-benzodioxin-2-ylmethyl)-1-piperazinyl]phenyl}urea hydrochloride]: the melting point was in the range of 180 to 185 °C.
In the case of `Cc1ccc(NC(=O)Nc2ccc(Cl)c(NC3=NCCN3)c2)cc1Cl.Cl`, the melting point lay within 255 to 257 °C.
The same measure, in the same setting: next, `COc1ccc(NC(=O)Nc2ccc(F)c(Cl)c2)cc1N1CCN(CC2COc3ccccc3O2)CC1.Cl` (centres unmarked): 120 to 130 °C; `CSc1ccc(NC(=O)Nc2ccc3c(c2)CC(c2c[nH]cn2)C3)cc1.Cl` (centres unmarked): 243 to 245 °C.
Still for that read-out and setting: next, `Cl.Cl.O=C(Nc1cccc(N2CCN(CC3COc4ccccc4O3)CC2)c1)N1CCc2cc(F)c(Cl)cc21` (centres unmarked): 202 to 204 °C; `Cc1ccc(NC(=O)Nc2cccc(CCC3=NCCN3)c2)cc1Cl.Cl`: 212 to 214 °C; `Cc1ccc(NC(=O)Nc2ccc3c(c2)C(c2c[nH]cn2)CCC3)cc1Cl.Cl` (centres unmarked): 255 to 257 °C.
In turn, `COc1ccc(NC(=O)Nc2ccc(C)c(Cl)c2)cc1N1CCN(C)CC1.Cl` gave a melting point of 206 to 208 °C.
On the same count and under the same terms, to `Cc1ccc(NC(=O)Nc2cccc(N3CCN(CC4COc5ccccc5O4)CC3)c2)cc1C.Cl` (centres unmarked) belongs 228 to 230 °C; to `COc1ccc(NC(=O)Nc2ccc(C)c(Cl)c2)cc1N1CCN(CC2COc3ccccc3O2)CC1.Cl` (centres unmarked), 193 to 197 °C; to `Cc1cc2c(cc1Cl)N(C(=O)Nc1ccc(N3CCN(CC4COc5ccccc5O4)CC3)cc1)CC2.Cl.Cl` (centres unmarked), 174 to 176 °C.
In turn, `Cl.O=C(Nc1cccc(N2CCN(CC3COc4ccccc4O3)CC2)c1)Nc1ccc(F)c(Cl)c1` (centres unmarked) gave a melting point of 132 to 136 °C.
In turn, `Cc1ccc(NC(=O)Nc2cccc(CCc3c[nH]cn3)c2)cc1Cl.Cl` had a melting point of 237 to 239 °C.
The compound `Cc1ccc(NC(=O)Nc2cccc(CC3=NCCN3)c2)cc1Cl.Cl` gave a melting point of 227 to 229 °C.
Compound `Cc1ccc(NC(=O)Nc2ccc3c(c2)CC(c2c[nH]cn2)C3)cc1Cl.Cl` (centres unmarked) returned a melting point of 235 to 237 °C.
The compound `Cc1ccc(NC(=O)Nc2cccc(NC3=NCCN3)c2)cc1Cl.Cl` registered a melting point of 180 to 185 °C.
Turning to `Cc1ccc(NC(=O)Nc2ccc(C)c(N3CCN(C)CC3)c2)cc1Cl.Cl`, the melting point fell in the range of 229 to 231 °C.
For the compound `Cc1ccc(NC(=O)Nc2ccc3c(c2)CC(c2c[nH]cn2)C3)cc1C.Cl` (centres unmarked), the melting point fell in the range of 232 to 234 °C.
The same measure, in the same setting: to `Cc1ccc(NC(=O)Nc2ccc3c(c2)CN(C2=NCCN2)CC3)cc1Cl.Cl` belongs 237 to 239 °C; to `Cc1ccc(NC(=O)Nc2ccc3c(c2)C(c2c[nH]cn2)CCO3)cc1Cl.Cl` (centres unmarked), > 260 °C.
Take `Cc1ccc(NC(=O)Nc2cccc(C(C)(C)C3=NCCN3)c2)cc1Cl.Cl`: the melting point lay in the range of 232 to 233 °C.

The subject of another data set is male CD-1 mice. Put plainly: Test in the mouse of aggressiveness induced by isolation. The class given is in vivo. The conditions noted are these: isolated male CD-1 mice; subcutaneous administration; 30 minutes before test; three minutes observation. The source says:
The animals used are male CD-1 mice. On arrival, the mice are isolated in individual cages with free access to food and drink. After a period of isolation of one month, pairs of mice that are constant in their aggressiveness are selected by observation of the latent period, the number and the duration of attacks when they are placed in each other's presence. The test takes place once a week. On the day of the test, each mouse of the pair of mice (resident mouse and intruder mouse) is given a subcutaneous injection of carrier (control animals) or of test product (treated animals) in a volume of 10 ml/kg. After 30 minutes, the intruder mouse is introduced into the cage of the resident mouse. The latent period of the first attack and the number and duration of attacks are then measured for a period of three minutes. A product is considered as specifically anti-aggressive when it reduces the number and the duration of attacks at non-sedative doses.
On to `Cc1ccc(NC(=O)Nc2cccc(N3CCN(CC4COc5ccccc5O4)CC3)c2)cc1Cl.Cl` (centres unmarked) [Example 6, N-(3-Chloro-4-methylphenyl)-N′-{3-[4-(2,3-dihydro-1,4-benzodioxin-2-ylmethyl)-1-piperazinyl]phenyl}urea hydrochloride], for which the “inhibitory dose 50 (ID50), number and duration of attacks” value is 2.5 mg/kg.

The subject of a further data set is Male NMRI mice. The data set can be described thus: Marble-burying test in the mouse. The class given is in vivo. The conditions noted are these: 0.5 h, 24 marbles, 30 minutes' free exploration, read-out: effective dose 50 (ED50), inhibition of marble-burying. The source says:
This test allows evaluation of the capacity of pharmacological agents to inhibit the spontaneous marble-burying behaviour in mice, the inhibition being predictive of antidepressant and/or anti-impulsive action. Male NMRI mice weighing from 20 to 25 g on the day of the experiment are placed individually in Macrolon boxes containing 5 cm of sawdust and covered with a perforated plexiglass plate. Twenty four “tiger's eye” glass marbles are evenly distributed on the sawdust at the periphery of the box. At the end of 30 minutes' free exploration, the animals are removed from the box and the number of buried marbles is counted.
One may read the ED50 as the dose at which the effect has come halfway, by size or by number of responders. On to `Cc1ccc(NC(=O)Nc2cccc(N3CCN(CC4COc5ccccc5O4)CC3)c2)cc1Cl.Cl` (centres unmarked) [Example 6, N-(3-Chloro-4-methylphenyl)-N′-{3-[4-(2,3-dihydro-1,4-benzodioxin-2-ylmethyl)-1-piperazinyl]phenyl}urea hydrochloride], for which the ED50 is 0.4 mg/kg.

A further data set has as its target T1, 5-HT2c receptors (Rattus norvegicus, UniProt P08909).
T1 construct: Male Wistar rats weighing from 120 to 140 g on the day of the experiment; from tissue; host or cells: whole animal (male Wistar rat), endogenous receptor
T1 sequence (P08909 33-460): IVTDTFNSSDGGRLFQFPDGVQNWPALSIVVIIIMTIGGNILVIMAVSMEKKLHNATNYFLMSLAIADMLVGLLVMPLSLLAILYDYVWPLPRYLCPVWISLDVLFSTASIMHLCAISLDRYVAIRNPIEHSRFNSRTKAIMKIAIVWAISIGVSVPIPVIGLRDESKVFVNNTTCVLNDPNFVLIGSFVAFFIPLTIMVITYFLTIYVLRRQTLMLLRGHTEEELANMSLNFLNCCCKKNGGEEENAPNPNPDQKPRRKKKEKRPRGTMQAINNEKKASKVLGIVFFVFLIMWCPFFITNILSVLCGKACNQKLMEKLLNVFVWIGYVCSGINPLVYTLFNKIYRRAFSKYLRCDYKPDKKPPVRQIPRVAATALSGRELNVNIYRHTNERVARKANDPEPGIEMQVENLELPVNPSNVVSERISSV
Put plainly: Penile erection test in the rat (erections induced by RO 60-0175). The class given is in vivo. The conditions noted are these: male Wistar rats; RO 60-0175 1.25 mg/kg s.c. 30 min after test compound; erections counted during 30 minutes. On the procedure: The test allows the evaluation of the capacity of pharmacological agents to inhibit penile erections caused by the administration of a 5-HT2c selective agonist, RO 60-0175.
Male Wistar rats weighing from 120 to 140 g on the day of the experiment are placed individually into plexiglass observation boxes immediately after having been administered the test compound or the carrier. Thirty minutes later, the animals are administered RO 60-0175 (1.25 mg/kg, subcutaneous route) and the number of erections that occur during the 30 minutes that follow is counted.
With `Cc1ccc(NC(=O)Nc2cccc(N3CCN(CC4COc5ccccc5O4)CC3)c2)cc1Cl.Cl` (centres unmarked) [Example 6, N-(3-Chloro-4-methylphenyl)-N′-{3-[4-(2,3-dihydro-1,4-benzodioxin-2-ylmethyl)-1-piperazinyl]phenyl}urea hydrochloride], the “inhibitory dose 50 (ID50), inhibition of penile erections” value came out at 0.7 mg/kg.
